# Measured values taken from paper PMC8880997, “Structure and ion-release mechanism of PIB-4-type ATPases” (eLife, 2021).
# What was measured:
# [1] = target: T1, sCoaT (Sulfitobacter sp. NAS-14.1, UniProt A0ABF7PH95); assay: X-ray crystallography, […]-3.[…] Å; type: binding; parameters: gene NAS141_02821; residues before about 40-47 not modelled; conditions: phosphate analogue at the phosphorylation site; formed from AlCl3 and NaF with EGTA, metal-free; E2.Pi state
# T1 sequence (A0ABF7PH95 1-682): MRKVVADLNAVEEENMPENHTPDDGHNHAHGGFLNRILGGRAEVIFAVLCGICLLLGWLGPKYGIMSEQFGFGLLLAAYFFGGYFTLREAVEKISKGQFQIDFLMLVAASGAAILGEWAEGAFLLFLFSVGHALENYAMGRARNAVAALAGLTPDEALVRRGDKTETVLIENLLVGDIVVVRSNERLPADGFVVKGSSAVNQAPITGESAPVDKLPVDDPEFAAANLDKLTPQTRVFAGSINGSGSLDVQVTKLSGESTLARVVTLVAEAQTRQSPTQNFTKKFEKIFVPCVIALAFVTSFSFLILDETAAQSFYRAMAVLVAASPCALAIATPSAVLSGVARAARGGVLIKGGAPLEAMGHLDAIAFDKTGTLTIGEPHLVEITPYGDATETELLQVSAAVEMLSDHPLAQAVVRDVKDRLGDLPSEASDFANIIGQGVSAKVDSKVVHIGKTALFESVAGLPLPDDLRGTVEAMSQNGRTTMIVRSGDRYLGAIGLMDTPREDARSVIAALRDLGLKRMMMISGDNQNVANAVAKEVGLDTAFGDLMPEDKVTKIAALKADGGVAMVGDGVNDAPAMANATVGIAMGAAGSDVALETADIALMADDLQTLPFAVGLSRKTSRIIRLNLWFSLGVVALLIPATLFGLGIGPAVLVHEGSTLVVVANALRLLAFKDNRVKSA
# [2] = target: T2, SsZntA (Shigella sonnei, UniProt Q3YW59); assay: Baginski ATPase assay (Pi release) in lipid-detergent; type: biochemical; conditions: 5 mM ATP, Zn2+ or Cd2+, 5 mM MgCl2, Tris-HCl pH 7.5, 37 °C; KCl titration
# T2 construct: gene zntA; purified as in Wang et al., 2014
# T2 sequence (Q3YW59 1-732): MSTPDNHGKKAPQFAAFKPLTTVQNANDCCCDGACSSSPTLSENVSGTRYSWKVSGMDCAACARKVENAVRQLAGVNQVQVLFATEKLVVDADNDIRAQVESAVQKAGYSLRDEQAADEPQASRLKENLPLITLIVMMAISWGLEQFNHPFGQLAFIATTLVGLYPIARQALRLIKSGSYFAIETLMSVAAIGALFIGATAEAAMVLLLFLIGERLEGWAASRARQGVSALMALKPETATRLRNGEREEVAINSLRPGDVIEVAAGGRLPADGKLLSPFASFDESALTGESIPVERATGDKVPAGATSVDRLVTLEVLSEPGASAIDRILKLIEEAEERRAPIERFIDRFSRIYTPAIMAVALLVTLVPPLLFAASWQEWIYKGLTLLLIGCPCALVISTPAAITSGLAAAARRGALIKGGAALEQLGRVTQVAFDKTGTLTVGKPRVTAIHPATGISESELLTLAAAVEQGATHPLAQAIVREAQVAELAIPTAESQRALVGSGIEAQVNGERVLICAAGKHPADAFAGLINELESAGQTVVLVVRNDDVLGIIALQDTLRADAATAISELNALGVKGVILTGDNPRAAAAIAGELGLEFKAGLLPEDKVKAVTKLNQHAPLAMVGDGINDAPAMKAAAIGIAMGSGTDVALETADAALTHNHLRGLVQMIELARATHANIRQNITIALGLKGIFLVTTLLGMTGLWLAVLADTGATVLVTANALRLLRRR
# [3] = target: T1, sCoaT; parameters: gene NAS141_02821; conditions: phosphate analogue at the phosphorylation site; formed from BeSO4 and NaF with EGTA, metal-free; late E2P state
compound,measurement,setting,value
[F][Al-]([F])([F])[F] [AlF4^−],"X-ray crystallography, 3.2-3.3 Å",[1],"structures of sCoaT in metal-free conditions supplemented with two different phosphate analogues, BeF3^− and AlF4^−"
Nc1ncnc2c1ncn2[C@@H]1O[C@H](COP(=O)(O)OP(=O)(O)OP(=O)(O)O)[C@@H](O)[C@H]1O [ATP],Baginski ATPase assay (Pi release) in lipid-detergent,[2],Functional ATPase assay in lipid–detergent solution of sCoaT (wild-type and D601K forms) as well as SsZntA
[F][Be-]([F])[F] [BeF3^−],"X-ray crystallography, 3.1 Å",[3],"structures of sCoaT in metal-free conditions supplemented with two different phosphate analogues, BeF3^− and AlF4^−"
